These results are taken from patent publication US20070299114A1, “Biaryl Derivatives” (Shionogi & Co., Ltd., priority 2004, published 2007).

The target in series [1] is T1, dihydrooroate dehydrogenase (Homo sapiens, UniProt Q02127).
T1 construct: ultracentrifugation at 4° C. and 120,000×g for 60 minutes afforded a mitochondrial/microsomal fraction; endogenous in cells; host or cells: U-937 (human histiocytic lymphoma cell line), mitochondrial/microsomal fraction
The experiment in a line: dihydroorotate dehydrogenase inhibition, U-937 mitochondrial/microsomal fraction, DCIP absorbance at 620 nm. It counts as biochemical. As to conditions: DHODH of human U-937 cell mitochondrial/microsomal fraction; 37° C., 120 minutes. The procedure: Method of Testing dihydrooroate dehydrogenase Inhibition
Human U-937 cell (human histiocytic lymphoma cell line) was sonicated in a homogenizing buffer (20 mM Tris-HC1, pH 7.4, containing 2 mM EDTA and protease inhibitor cocktail), and this was centrifuged at 4° C. and 1,200×g for 15 minutes to remove cell debris. Further, ultracentrifugation at 4° C. and 120,000×g for 60 minutes afforded a mitochondrial/microsomal fraction. The resulting fraction was quantitated for a protein, and prepared to 10 mg/ml, which was freezing-stored in a −40° C. in a refrigerator until measurement. To 150 μl of the reaction solution (50 mM Tris-HC1, pH 7.4, containing 0.1% Triton X-100, 1 mM KCN, 100 μM coenzyme Q10, 200 μM DCIP), were added 10 μl of a dilution series of the compound and 0.2 mg of a mitochondrial/microsomal fraction, followed by pre-incubation at 37° C. for 30 minutes. Then, 20 μl of a 5 mM DHO solution (final concentration […]), which is a substrate, was added, this was incubated at 37° C. for 120 minutes, and an absorbance at a measurement wavelength of 620 nm was measured. A rate of suppression of a compound at each concentration relative to a change in an absorbance due to the enzyme reaction was obtained, and a concentration indicating 50% inhibition (IC50 value) was calculated to assess the inhibition activity of the compound.

Series [2] deals with anti-OVA IgE antibody. Kind of series: suppression of IgE antibody production to anti-ovalbumin (OVA) in immunized mice, PCA titer. It counts as in vivo. As to conditions: anti-OVA IgE antibody value (PCA titer, Log2 of maximum serum dilution rate) in BALB/c mice. The procedure:
Effect of Suppression of IgE Antibody Production to Anti-Ovalbumin (OVA)
BALB/c mice (female, 8 to 10 week old) purchased from Japan Charles River (Kanagawa) and Wistar rats (female, 8 to 10 week old) purchased from Japan SLC (Sizuoka) were used.
BALB/c mice were immunized by intraperitoneally injecting 0.2 ml of a solution obtained by suspending 2 μg of ovalbumin (OVA) and an aluminum hydroxide gel (1 mg) in a brine. After ten days, blood was taken from a heart, the serum was separated, and an IgE antibody value was measured.
[…] Administration was performed from immunization date to the day before blood collection for consecutive 10 days.
4) Measurement of Anti-OVA IgE Antibody Value (PCA Titer)
The resulting mouse serum was prepared into a 2-fold dilution series with a brine, and each 50 μl of this was subcutaneously injected into a back of a pre-shaved Wistar rat. After 24 hours, 0.5 ml of a brine containing 1 mg of OVA and 5 mg of an Evans Blue dye was intravenously injected to induce a passive skin anaphylactic reaction (PCA).

The test system of series [3] is Human lymphocyte. Kind of series: suppression of IgE antibody production in human lymphocyte stimulated with anti-human CD40 antibody and IL-4. It counts as cell-based. As to conditions: 216 h; IgE antibody production by human lymphocyte, anti-human CD40 antibody + IL-4, cultured for 9 days, ELISA. The procedure: Effect of Suppressing Antibody Production Using Human Lymphocyte
1) Human Peripheral Blood
Human peripheral blood was collected with a plastic syringe containing heparin (final concentration 1.5%) from a vein of an adult healthy person, and subjected to collection of lymphocyte immediately after blood collection.
To the RPMI medium (Sigma) were added 10% of fetal bovine serum, (HyClone Lab.) which had been immobilized at 56° C. for 30 minutes, penicillin (100 units/ml) and streptomycin (100 μg/ml) (Invitrogen), which was used.
The present compound was dissolved in dimethyl sulfoxide (Nakalai Tesque) to 2 mg/ml and, thereafter, the solution was diluted with a medium to a final concentration of 0.01 pg/ml to 10 μg/ml.
Human peripheral blood was mixed with an equal amount of PBS-10 mM EDTA, 10 ml of this was overlaid on a tube containing 3 ml of Ficoll-Paque Plus (Pharmacia Biotech), followed by centrifugation at room temperature and 300×g for 30 minutes to obtain a lymphocyte layer. The collected cell suspension was centrifugation-washed with a sterilized Hanks's balanced salt solution (Invitrogen), passed through a nylon mesh, and centrifugation-washed with a medium, which was used in an experiment as human lymphocyte.
5) Inducement of IgE Antibody Production Due to B cell Stimulation
Human lymphocyte was seeded on a 96-well culturing plate (Sumitomo Bakelite) to 2×10^5 cells per well, and the compound, an anti-human CD40 antibody (Pharmingen, 2 μg/ml), and human recombinant interleukin-4 (IL-4) (PEPROTECH, 0.1 μg/ml) were added, followed by culturing at 37° C. under the presence of 5% CO2 (0.2 ml/well). After cultured for 9 days, an amount of an antibody produced in the supernatant was quantitated by a specific ELISA method.
6) Quantitation of IgE Antibody
For quantitating IgE, a commercially available kit, MESACUP IgE Test (Medical & Biological Laboratories Co., Ltd.) was used. An experimental method was according to the manual, an experiment was performed duplicately, and an average was obtained.

Where [4] appears, read: dose 40 mg/kg orally for consecutive 10 days.
[5] abbreviates: dose 10 mg/kg orally for consecutive 10 days.

T1 sequence (Q02127 whole entry): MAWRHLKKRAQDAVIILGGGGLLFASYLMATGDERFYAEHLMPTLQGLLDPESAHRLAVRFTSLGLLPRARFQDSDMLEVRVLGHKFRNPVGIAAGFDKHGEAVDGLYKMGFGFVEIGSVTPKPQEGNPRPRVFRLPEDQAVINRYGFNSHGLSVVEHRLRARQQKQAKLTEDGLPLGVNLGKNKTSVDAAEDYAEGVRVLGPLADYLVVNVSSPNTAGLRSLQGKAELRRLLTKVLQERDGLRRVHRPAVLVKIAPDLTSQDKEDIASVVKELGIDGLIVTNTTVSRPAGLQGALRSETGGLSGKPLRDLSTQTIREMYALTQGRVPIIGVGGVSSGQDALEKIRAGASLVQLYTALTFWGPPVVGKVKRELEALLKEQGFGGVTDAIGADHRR

Regarding `CCS(=O)(=O)NC(=O)/C(C)=C/c1cc(C)c(-c2ccc(NCc3ccco3)cc2F)cc1C` [Compound 347], the IC50 was 6.16 nM in series [1] and 60 ng/mL in series [3]. In series [2] (setting [4]), the PCA was 2.0.
Take `Cc1cc(-c2ccc(NC3CCCC3)cc2)c(C)cc1/C=C(\F)C(=O)NC(C)C` [Compound 397]: the concentration for half-maximal inhibition (IC50) was 6.84 nM in series [1] and 0.3 ng/mL in series [3]. Moreover, the PCA in series [2] (dose 20 mg/kg orally for consecutive 10 days) is 0<.
As to `Cc1cc(-c2ccc(NC(C)C)cc2F)c(C)cc1/C=C(/F)C(=O)NC(C)C` [Compound 201], the concentration for half-maximal inhibition (IC50) in series [1] is 5.17 nM; in series [3], 0.6 ng/mL. In series [2] (setting [5]), this molecule registered a PCA of 5.3.
With `C/C(=C\C(=O)NC(C)C)c1cc(C)c(-c2ccc3[nH]ccc3c2)cc1C` [Compound 252], the IC50 in series [1] is 13.6 nM; in series [3], 75 ng/mL. The PCA in series [2] (setting [4]) is listed as 0<.
For `C/C(=C\c1c(C)c(F)c(-c2ccc(NC(C)C)cc2)c(C)c1F)C(=O)O` [Compound 486], the PCA in series [2] (setting [5]) is listed as 0<. The 50% inhibitory concentration (IC50) in series [3] was determined as 13.5 ng/mL.
In the case of `COc1cc(-c2ccc(NC(C)C)cc2F)c(OC)cc1/C(C)=C/C(=O)NC(C)C` [Compound 40], the PCA in series [2] (setting [4]) is given as 1.3. In series [3], the IC50 was found to be 3.7 ng/mL.
For `CCC/C=C/CNc1ccc(-c2c(C)c(OC)c(/C=C(\C)C(=O)O)c(C)c2OC)cc1` [Compound 573], in series [2] (setting [5]), the PCA is reported as 0<. In series [3], the IC50 amounted to 6.6 ng/mL.
In the case of `CC/C(=C\c1cc(C)c(-c2ccc(NC(C)C)cc2)cc1C)C(=O)NC1CCCC1` [Compound 142], the PCA in series [2] (setting [5]) is on record as 0.0. Also, the IC50 in series [3] turned out to be 8.4 ng/mL.
Consider `COc1c(C)c(-c2ccc(NC3CCCCC3)cc2)c(OC)c(C)c1/C=C(\C)C(=O)N[C@H](C)C(=O)O` [Compound 562], for which the PCA in series [2] (setting [4]) is on record as 0<. For the same molecule, the IC50 in series [3] worked out at 8.4 ng/mL.
As to `CC/C=C/CNc1ccc(-c2c(C)c(OC)c(/C=C(\C)C(=O)O)c(C)c2OC)cc1` [Compound 585], in series [2] (setting [5]), the PCA worked out at 1.0. Also, the IC50 in series [3] came out at 4.8 ng/mL.
Consider `Cc1cc(-c2ccc(NC3CCCC3)cc2)c(C)cc1/C=C(\F)C(=O)NCCC(=O)O` [Compound 408], for which, in series [2] (setting [4]), the PCA is 0<. For the same molecule, the IC50 in series [3] came out at 8 ng/mL.
`C/C(=C\c1ccc(-c2ccc3[nH]ccc3c2)cc1)C(=O)NC1CCCC1` [Compound 4] returned a melting point of 154 to 157 °C.
`C/C(=C\c1ccc(-c2ccc3[nH]ccc3c2)cc1)C(=O)O` [Compound 1] came in with a melting point of 195 to 198 °C.
For the molecule `COc1cc(-c2ccc(NC(C)C)cc2F)c(OC)cc1/C=C(\C)C(=O)O` [Compound 22], the melting point lay in the range of 213 to 216 °C.
`C/C(=C\c1c(C)c(C)c(-c2ccc(NC3CCCC3)cc2F)c(C)c1C)C(=O)NC1CCCC1` [Compound 459] showed a PCA in series [2] (setting [5]) of 2.7. For the same molecule, in series [3], the IC50 was determined as 0.8 ng/mL.
Regarding `C/C(=C\c1cc(C)c(-c2ccc3[nH]ccc3c2)cc1C)C(=O)NC(C)C` [Compound 76], the PCA in series [2] (setting [5]) was found to be 4.3. Further, in series [3], the IC50 worked out at 1.6 ng/mL.
Take `C/C(=C\c1cc(C)c(-c2ccc(NC(C)C)cc2F)cc1C)C(=O)NC(C)C` [Compound 122]: the IC50 in series [1] is 10.5 nM; in series [3], 0.5 ng/mL. Besides, the PCA in series [2] (setting [5]) was found to be 4.7.
`COc1c(C)c(-c2ccc(NCc3ccc(C)o3)cc2)c(OC)c(C)c1/C=C(\C)C(=O)O` [Compound 571] displayed a PCA in series [2] (setting [5]) of 1.3. The 50% inhibitory concentration (IC50) in series [3] is 6.4 ng/mL.
On to `COc1c(C)c(-c2ccc(NC(C)C)cc2)c(OC)c(C)c1/C=C(\C)C(=O)O` [Compound 526], for which the PCA in series [2] (setting [4]) turned out to be 2.7. The IC50 in series [3] was found to be 0.9 ng/mL.
In turn, `C/C(=C\c1cc(C)c(-c2ccc(NC(C)C)cc2)cc1C)C(=O)NC1CCCCC1` [Compound 80] displayed a PCA in series [2] (setting [5]) of 5.3. The IC50 in series [3] came to 4.6 ng/mL.
`C/C(=C\c1cc(F)c(-c2ccc(NC(C)C)cc2)cc1F)C(=O)NCC(=O)O` [Compound 21]: the melting point is 156 to 158 °C.
For `C/C(=C\c1c(C)c(C)c(-c2ccc(NC(C)C)cc2F)c(C)c1C)C(=O)N[C@H](C)C(=O)O` [Compound 420], the PCA in series [2] (setting [4]) is on record as 0<. Moreover, the IC50 in series [3] came to 39 ng/mL.
Molecule `CC/C(=C\c1c(C)c(F)c(-c2ccc(NC(C)C)cc2)c(C)c1F)C(=O)O` [Compound 493] had a PCA in series [2] (setting [5]) of 4.0. Also, in series [3], the IC50 came to 9.4 ng/mL.
Regarding `C/C(=C\c1c(C)c(F)c(-c2ccc(NC(C)C)nc2)c(C)c1F)C(=O)NC(C)C` [Compound 484], the PCA in series [2] (setting [4]) is listed as 0<. For the same molecule, in series [3], the half-inhibitory concentration (IC50) was 9.3 ng/mL.

For orientation: IC50 means the midpoint of a concentration-inhibition curve. What is called melting point is the temperature of the solid-liquid transition.
